The experiment relates to nude mice, A549 intrarenal xenograft, tumor weight change. Kind of experiment: NCI In Vivo Anticancer Drug Screen. Data for tumor model A549 Human Adenocarcinoma of Lung with characteristics of Type II Alveolar Epithelial cells (intrarenal inoculation) in NU/NU BALB/C (nude) mice. Particulars: endpoint: mean tumor weight change, schedule: Q04DX003 (ip), higher = larger tumour. The method in brief: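 Mice bearing transplantable tumors were treated and survival or tumor size recorded. Values are given as treated-group measurement divided by vehicle-control measurement (T/C).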

[1] abbreviates: dose: 75.0 mg/kg/injection, vehicle: Klucel (hydroxypropylcellulose) (HPC).
[2] abbreviates: dose: 150.0 mg/kg/injection, vehicle: Klucel (hydroxypropylcellulose) (HPC).
The mark [3] stands for this setting: dose: 50.0 mg/kg/injection, vehicle: saline with Tween-80.
[4] abbreviates: dose: 100.0 mg/kg/injection, vehicle: saline with Tween-80.
Where [5] appears, read: dose: 200.0 mg/kg/injection, vehicle: saline with Tween-80.
[6] abbreviates: dose: 25.0 mg/kg/injection, vehicle: saline with Tween-80.
Setting [7] is: dose: 400.0 mg/kg/injection, vehicle: saline with Tween-80.

Inconclusive results are not listed. Residues, ends and D or L forms follow the SMILES beside them. *: point of attachment. Trt = c1ccc(C(c2ccccc2)(c2ccccc2)*)cc1; Cbz = O=C(OCc1ccccc1)*; Bn = c1ccc(C*)cc1; βAla = NCCC(=O)O

As to `CC(C)(C)c1ccc(C(=O)N2CCOC23CCCCC3)cc1`, the T/C is 55 % of control (dose: 150.0 mg/kg/injection, vehicle: saline with Tween-80); 28 % of control (dose: 300.0 mg/kg/injection, vehicle: saline with Tween-80); 63 % of control (dose: 600.0 mg/kg/injection, vehicle: saline with Tween-80); 42 % of control (dose: 1200.0 mg/kg/injection, vehicle: saline with Tween-80).
For the compound `CCOc1cc2c(cc1C(C)c1ccc(OC)cc1)OCO2` (stereo not drawn), the T/C reads like this: (dose: 54.0 mg/kg/injection, vehicle: distilled water + alcohol) 67 % of control; (dose: 90.0 mg/kg/injection, vehicle: distilled water + alcohol) 48 % of control; (dose: 250.0 mg/kg/injection, vehicle: distilled water + alcohol) 4 % of control.
As to `COc1cc(C)c(C2NC(=O)c3ccccc3N2)cc1C` (stereo not drawn), the T/C was 5 % of control under setting [1]; 161 % of control (dose: 129.6 mg/kg/injection, vehicle: Klucel (hydroxypropylcellulose) (HPC)); 47 % of control under setting [2]; 6 % of control (dose: 300.0 mg/kg/injection, vehicle: Klucel (hydroxypropylcellulose) (HPC)); 112 % of control (dose: 360.0 mg/kg/injection, vehicle: Klucel (hydroxypropylcellulose) (HPC)); 65 % of control (dose: 1000.0 mg/kg/injection, vehicle: Klucel (hydroxypropylcellulose) (HPC)).
For the compound `Cc1ccoc1`, the T/C runs as follows: under setting [3], 78 % of control; under setting [4], 89 % of control; under setting [5], 75 % of control.
For the compound `CC(O)C1(O)C(O)CC(OC2c3cc4c(c(O)c3[C@@H]3C[C@@]2(C)OC32C=c3cc[nH]c3=N2)C(=O)c2cccc(O)c2C4=O)OC1C` (stereo partly drawn), the T/C under setting [6] was 65 % of control and the T/C under setting [3] was 55 % of control.
On to `CCOC(=O)c1ccc(NN=NCCF)cc1`, for which the T/C is, setting by setting: (dose: 75.0 mg/kg/injection, vehicle: distilled water + Tween-80 + alcohol) 114 % of control; (dose: 150.0 mg/kg/injection, vehicle: distilled water + Tween-80 + alcohol) 160 % of control; (dose: 300.0 mg/kg/injection, vehicle: distilled water + Tween-80 + alcohol) 63 % of control.
`NC(=S)N/N=C/c1ccc(O)cn1`: the T/C under setting [4] is 46 % of control, the T/C under setting [5] was 57 % of control and the T/C under setting [7] was 53 % of control.
Consider `COc1cc(C(C)c2cc3c(cc2OCCO)OCO3)cc(OC)c1OC` (stereo not drawn), for which the T/C runs as follows: (dose: 125.0 mg/kg/injection, vehicle: suspension in saline) 117 % of control; (dose: 250.0 mg/kg/injection, vehicle: suspension in saline) 72 % of control.
Turning to `Cc1nc2c(N)cc(Cl)cc2[nH]1`, the T/C under setting [4] is 89 % of control and the T/C under setting [5] was 95 % of control.
Consider `CN(C)C(=O)Nc1ccc(Cl)cc1`, for which the T/C reads like this: (dose: 150.0 mg/kg/injection, vehicle: suspension in saline) 120 % of control; (dose: 300.0 mg/kg/injection, vehicle: suspension in saline) 74 % of control; (dose: 600.0 mg/kg/injection, vehicle: suspension in saline) 112 % of control.
For `Nc1nc(Br)nc2c1ncn2C1CC(O)C(CO)O1` (stereo not drawn), the T/C by setting is: (dose: 25.0 mg/kg/injection, vehicle: saline) 92 % of control; (dose: 50.0 mg/kg/injection, vehicle: saline) 121 % of control; (dose: 100.0 mg/kg/injection, vehicle: saline) 96 % of control; (dose: 200.0 mg/kg/injection, vehicle: saline) 74 % of control.
As for `CCCCOCN(COCCCC)C12CC3CC(CC(C3)C1)C2`, the T/C runs as follows: under setting [4], 123 % of control; under setting [7], 203 % of control.
For the compound `COC(=O)C(CSC(c1ccccc1)(c1ccccc1)c1ccccc1)NC(=O)C(CSCc1ccccc1)NC(=O)CCNC(=O)OCc1ccccc1` (stereo not drawn) ({Cbz-βAla}-Cys(Bn)-Cys(Trt)-OMe; configuration not given here), the T/C was 153 % of control (dose: 100.0 mg/kg/injection, vehicle: Klucel + Tween-80); 112 % of control (dose: 200.0 mg/kg/injection, vehicle: Klucel + Tween-80); 161 % of control (dose: 400.0 mg/kg/injection, vehicle: Klucel + Tween-80); 109 % of control (dose: 800.0 mg/kg/injection, vehicle: Klucel + Tween-80).
With `CC(/C=C/C=C/C=C/C=C/C=C/C(O)=C1/C(=O)C(CCC(=O)O)N(C)C1=O)=C\C(C)C(OC1CC(O)C(O)C(C)O1)C(C)C` (stereo not drawn), the T/C is 60 % of control (dose: 15.88 mg/kg/injection, vehicle: water); 61 % of control (dose: 31.75 mg/kg/injection, vehicle: water); 110 % of control (dose: 62.5 mg/kg/injection, vehicle: water); 37 % of control (dose: 75.0 mg/kg/injection, vehicle: water).
As to `C/C=C/CC(C)C(O)C1C(=O)NC(CC)C(=O)N(C)CC(=O)N(C)C(CC(C)C)C(=O)NC(C(C)C)C(=O)N(C)C(CC(C)C)C(=O)NC(C)C(=O)NC(C)C(=O)N(C)C(CC(C)C)C(=O)N(C)C(CC(C)C)C(=O)N(C)C(C(C)C)C(=O)N1C` (stereo not drawn), the T/C reads like this: under setting [1], 158 % of control; under setting [2], 65 % of control.
`Nc1cc2c(cc1Br)-c1c(C(=O)O)cccc1C2O` (stereo not drawn): the T/C is, setting by setting: (dose: 150.0 mg/kg/injection, vehicle: sodium bicarbonate) 74 % of control; (dose: 300.0 mg/kg/injection, vehicle: sodium bicarbonate) 78 % of control; (dose: 600.0 mg/kg/injection, vehicle: sodium bicarbonate) 68 % of control; (dose: 1200.0 mg/kg/injection, vehicle: sodium bicarbonate) 56 % of control.
In the case of `Cn1c(=S)sc2nc3ccccc3n2c1=S`, the T/C runs as follows: (dose: 30.0 mg/kg/injection, vehicle: saline with Tween-80) 83 % of control; (dose: 60.0 mg/kg/injection, vehicle: saline with Tween-80) 50 % of control; (dose: 120.0 mg/kg/injection, vehicle: saline with Tween-80) 73 % of control.
On to `O=C(O)CCCc1ccc(N(CCCl)CCCl)cc1`, for which the T/C (dose: 0.13 mg/kg/injection, vehicle: Klucel (hydroxypropylcellulose) (HPC)) is 93 % of control; the T/C (dose: 0.2 mg/kg/injection, vehicle: Klucel (hydroxypropylcellulose) (HPC)) was 101 % of control; the T/C (dose: 0.3 mg/kg/injection, vehicle: Klucel (hydroxypropylcellulose) (HPC)) is 169 % of control; the T/C (dose: 12.0 mg/kg/injection, vehicle: saline with Tween-80) is 118 % of control; the T/C (dose: 18.0 mg/kg/injection, vehicle: saline with Tween-80) is 64 % of control; the T/C (dose: 27.0 mg/kg/injection, vehicle: saline with Tween-80) was 15 % of control.
As to `CCC(NC(N)=O)C(CC)NC(N)=O` (stereo not drawn), the T/C reads like this: (dose: 6.25 mg/kg/injection, vehicle: saline with Tween-80) 68 % of control; (dose: 12.5 mg/kg/injection, vehicle: saline with Tween-80) 120 % of control; under setting [6], 102 % of control.

For the origin of these results see PubChem BioAssay AID278 (DTP/NCI, 2004).
